Eleven compounds from PubChem BioAssay (NCI) can be followed below.

Molecules are shown by their SMILES.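 96-well plates; 48 h exposure; 5 concentrations. Endpoints by linear interpolation between flanking doses. Not reached: highest tested concentration assigned. The concentration for full growth arrest is given as TGI.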

In one assay the test system is SW-620 colon. Description: NCI-60 cell line screen, 48 h.
On to `CSC(=S)N/N=C(\C)c1ccc(S(=O)(=O)N(C)c2ccccc2)cc1`, for which the TGI is > 100 µM.

For the compound `CCNC(=O)Cc1nc2c(N)ncnc2n1C1OC(CO)C(O)C1O` (stereo not given), the TGI is > 100 µM.

For `O=C(O)c1ccccc1CC1Cc2ccccc2C1=O` (stereo not given), the TGI is > 100 µM.

In the case of `Cc1nc(N)c(N2CCN([N+](=O)[O-])CC2)c(=O)[nH]1`, the TGI is > 100 µM.

As for `COC(=O)C1CCC(=O)N1C(c1ccc(OC)cc1)c1ccc2c(c1)OCO2` (stereo not given), the TGI is > 100 µM.

`Cc1ccc(S(=O)(=O)N/N=C/C2(c3ccccc3)c3ccccc3-c3ccccc32)cc1` yielded a TGI of 31 µM.

Consider `N#CC12C(=O)N=C(N)C1(C#N)C(c1ccco1)NC1=C2CCCC1` (stereo not given), for which the TGI is > 100 µM.

Regarding `CC(=N/N=C/c1ccccn1)/C(C)=N/N=C(C)/C(C)=N/N=C(C)/C(C)=N/N=C(C)/C(C)=N\N=C\c1ccccn1`, the TGI was > 100 µM.

For `CC1=NN(c2cccc(Cl)c2)C2(C1=C/C=C/c1ccccc1)C(Cl)C(=O)N2c1nc2ccccc2s1` (stereo not given), the TGI was > 96.1 µM.

As for `NS(=O)(=O)c1cc(Cl)c(NC(=S)NC(=O)Nc2ccc(Cl)c(Cl)c2)c(Cl)c1`, the TGI was > 100 µM.

`Cc1ccc(-c2[nH]c(=O)n(C3OC(CO)C(O)C(O)C3O)c(=O)c2C#N)cc1` (stereo not given): the TGI is > 100 µM.

In the next assay the test system is COLO 205 colon. Description: NCI-60 cell line screen, 48 h.
Consider `CSC(=S)N/N=C(\C)c1ccc(S(=O)(=O)N(C)c2ccccc2)cc1`, for which the TGI was > 100 µM.

For `CCNC(=O)Cc1nc2c(N)ncnc2n1C1OC(CO)C(O)C1O` (stereo not given), the TGI was > 100 µM.

Regarding `O=C(O)c1ccccc1CC1Cc2ccccc2C1=O` (stereo not given), the TGI was > 100 µM.

Regarding `Cc1nc(N)c(N2CCN([N+](=O)[O-])CC2)c(=O)[nH]1`, the TGI was > 100 µM.

Consider `COC(=O)C1CCC(=O)N1C(c1ccc(OC)cc1)c1ccc2c(c1)OCO2` (stereo not given), for which the TGI is > 100 µM.

`Cc1ccc(S(=O)(=O)N/N=C/C2(c3ccccc3)c3ccccc3-c3ccccc32)cc1` had a TGI of 13.8 µM.

For `N#CC12C(=O)N=C(N)C1(C#N)C(c1ccco1)NC1=C2CCCC1` (stereo not given), the TGI was > 100 µM.

In the case of `CC(=N/N=C/c1ccccn1)/C(C)=N/N=C(C)/C(C)=N/N=C(C)/C(C)=N/N=C(C)/C(C)=N\N=C\c1ccccn1`, the TGI is > 100 µM.

`CC1=NN(c2cccc(Cl)c2)C2(C1=C/C=C/c1ccccc1)C(Cl)C(=O)N2c1nc2ccccc2s1` (stereo not given): the TGI was > 100 µM.

For `NS(=O)(=O)c1cc(Cl)c(NC(=S)NC(=O)Nc2ccc(Cl)c(Cl)c2)c(Cl)c1`, the TGI was determined as 33.6 µM.

As for `Cc1ccc(-c2[nH]c(=O)n(C3OC(CO)C(O)C(O)C3O)c(=O)c2C#N)cc1` (stereo not given), the TGI is > 100 µM.

A further assay concerns NCI-H460 lung. Description: NCI-60 cell line screen, 48 h.
Turning to `CSC(=S)N/N=C(\C)c1ccc(S(=O)(=O)N(C)c2ccccc2)cc1`, the TGI was > 100 µM.

As for `CCNC(=O)Cc1nc2c(N)ncnc2n1C1OC(CO)C(O)C1O` (stereo not given), the TGI is > 100 µM.

With `O=C(O)c1ccccc1CC1Cc2ccccc2C1=O` (stereo not given), the TGI is > 100 µM.

For `Cc1nc(N)c(N2CCN([N+](=O)[O-])CC2)c(=O)[nH]1`, the TGI was > 100 µM.

With `COC(=O)C1CCC(=O)N1C(c1ccc(OC)cc1)c1ccc2c(c1)OCO2` (stereo not given), the TGI is > 100 µM.

As for `Cc1ccc(S(=O)(=O)N/N=C/C2(c3ccccc3)c3ccccc3-c3ccccc32)cc1`, the TGI turned out to be 18.2 µM.

Regarding `N#CC12C(=O)N=C(N)C1(C#N)C(c1ccco1)NC1=C2CCCC1` (stereo not given), the TGI was > 100 µM.

As for `CC(=N/N=C/c1ccccn1)/C(C)=N/N=C(C)/C(C)=N/N=C(C)/C(C)=N/N=C(C)/C(C)=N\N=C\c1ccccn1`, the TGI is > 100 µM.

As for `CC1=NN(c2cccc(Cl)c2)C2(C1=C/C=C/c1ccccc1)C(Cl)C(=O)N2c1nc2ccccc2s1` (stereo not given), the TGI is > 100 µM.

As to `NS(=O)(=O)c1cc(Cl)c(NC(=S)NC(=O)Nc2ccc(Cl)c(Cl)c2)c(Cl)c1`, the TGI was > 100 µM.

On to `Cc1ccc(-c2[nH]c(=O)n(C3OC(CO)C(O)C(O)C3O)c(=O)c2C#N)cc1` (stereo not given), for which the TGI is > 100 µM.

For another assay, the system named is T-47D breast. Description: NCI-60 cell line screen, 48 h.
For the compound `CSC(=S)N/N=C(\C)c1ccc(S(=O)(=O)N(C)c2ccccc2)cc1`, the TGI was > 100 µM.

With `CCNC(=O)Cc1nc2c(N)ncnc2n1C1OC(CO)C(O)C1O` (stereo not given), the TGI is > 100 µM.

Regarding `O=C(O)c1ccccc1CC1Cc2ccccc2C1=O` (stereo not given), the TGI is > 100 µM.

As to `Cc1nc(N)c(N2CCN([N+](=O)[O-])CC2)c(=O)[nH]1`, the TGI was > 100 µM.

For the compound `COC(=O)C1CCC(=O)N1C(c1ccc(OC)cc1)c1ccc2c(c1)OCO2` (stereo not given), the TGI was > 100 µM.

Turning to `Cc1ccc(S(=O)(=O)N/N=C/C2(c3ccccc3)c3ccccc3-c3ccccc32)cc1`, the TGI was found to be 44 µM.

On to `N#CC12C(=O)N=C(N)C1(C#N)C(c1ccco1)NC1=C2CCCC1` (stereo not given), for which the TGI was > 100 µM.

Take `CC(=N/N=C/c1ccccn1)/C(C)=N/N=C(C)/C(C)=N/N=C(C)/C(C)=N/N=C(C)/C(C)=N\N=C\c1ccccn1`: the TGI is > 100 µM.

For the compound `CC1=NN(c2cccc(Cl)c2)C2(C1=C/C=C/c1ccccc1)C(Cl)C(=O)N2c1nc2ccccc2s1` (stereo not given), the TGI was > 100 µM.

Turning to `NS(=O)(=O)c1cc(Cl)c(NC(=S)NC(=O)Nc2ccc(Cl)c(Cl)c2)c(Cl)c1`, the TGI is > 100 µM.

As to `Cc1ccc(-c2[nH]c(=O)n(C3OC(CO)C(O)C(O)C3O)c(=O)c2C#N)cc1` (stereo not given), the TGI is > 100 µM.

A further assay has as its system DU-145 prostate. Description: NCI-60 cell line screen, 48 h.
With `CSC(=S)N/N=C(\C)c1ccc(S(=O)(=O)N(C)c2ccccc2)cc1`, the TGI is > 100 µM.

For `CCNC(=O)Cc1nc2c(N)ncnc2n1C1OC(CO)C(O)C1O` (stereo not given), the TGI was > 100 µM.

`O=C(O)c1ccccc1CC1Cc2ccccc2C1=O` (stereo not given): the TGI is > 100 µM.

On to `Cc1nc(N)c(N2CCN([N+](=O)[O-])CC2)c(=O)[nH]1`, for which the TGI was > 100 µM.

For the compound `COC(=O)C1CCC(=O)N1C(c1ccc(OC)cc1)c1ccc2c(c1)OCO2` (stereo not given), the TGI was > 100 µM.

`Cc1ccc(S(=O)(=O)N/N=C/C2(c3ccccc3)c3ccccc3-c3ccccc32)cc1` had a TGI of 27.1 µM.

As for `N#CC12C(=O)N=C(N)C1(C#N)C(c1ccco1)NC1=C2CCCC1` (stereo not given), the TGI was > 100 µM.

Consider `CC(=N/N=C/c1ccccn1)/C(C)=N/N=C(C)/C(C)=N/N=C(C)/C(C)=N/N=C(C)/C(C)=N\N=C\c1ccccn1`, for which the TGI was > 100 µM.

On to `CC1=NN(c2cccc(Cl)c2)C2(C1=C/C=C/c1ccccc1)C(Cl)C(=O)N2c1nc2ccccc2s1` (stereo not given), for which the TGI was > 38.2 µM.

For `NS(=O)(=O)c1cc(Cl)c(NC(=S)NC(=O)Nc2ccc(Cl)c(Cl)c2)c(Cl)c1`, the TGI is > 100 µM.

As for `Cc1ccc(-c2[nH]c(=O)n(C3OC(CO)C(O)C(O)C3O)c(=O)c2C#N)cc1` (stereo not given), the TGI is > 100 µM.
